# How the values were obtained:
# HBV = HBV replication assay in HepDES19 cells; type: cell-based; conditions: Hepatitis B virus; HepDES19 cells; read-out: EC50 (HBV assay)
# In short: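 HepDES19 cells induced by tetracycline withdrawal, then compound applied 48 h later in duplicate (1% DMSO final) and refreshed daily for two more days. After micrococcal nuclease digestion, capsid-associated HBV DNA purified and plus- and minus-strand DNA quantified by TaqMan PCR.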
# [1] = test system: TK-deficient mutant of HSV-2 strain 333, ΔTK-; experiment: Replication of acyclovir-resistant TK-deficient HSV-2 mutant in Vero cells; type: cell-based, herpes simplex virus 2; conditions: 5 μM, 24 hr, FIG. 4
# Procedure: FIGS. 4A & 4B. Sensitivity of thymidine kinase-deficient HSV-2 to αHT compounds. […] Duplicate cultures were collected 24 hours post-infection and infectious virus titers were determined by plaque assay. Titers in compound-treated samples were subtracted from DMSO-treated samples. Values are the averages±one standard error of the mean. α-Hydroxytropolones inhibit an ACV-resistant mutant of HSV-2. […] Log10 suppression was determined relative to the diluent control. Data are the averages of data from duplicate samples±ranges from one of two independent experiments at each concentration.
# Vero cells were maintained in Dulbecco's modified Eagle's medium (DMEM) containing 3% newborn calf serum, 3% bovine growth serum, 2 mM L-glutamine and 100 IU/mL penicillin and 0.1 mg/mL streptomycin (P/S). HSV-1 #6 and HSV-2 #1 are de-identified clinical isolates from the Saint Louis University Hospital. Stocks were prepared after a single passage in cell culture and were titered by standard plaque assay (Knipe and Spang, 1982). Wild-type HSV-2 used in FIG. 3 was laboratory strain 333. The TK-deficient mutant of HSV-2 strain 333, ΔTK-, contains a 180-bp KpnI-KpnI deletion in the UL23 open reading frame that abrogates TK activity (McDermott, et al, 1984). ΔTK- was the generous gift of Jim Smiley. Virus stocks were grown and titered on Vero cells (Morrison and Knipe, 1996).
# HSV TK-deficient mutants are therefore insensitive to ACV. […] Vero cells were infected with a laboratory strain of HSV-2 and an engineered TK-deficient mutant of the same strain.
# HSV-2 = experiment: Anti-HSV-2 replication assay in Vero cells, titers by plaque assay; type: cell-based, herpes simplex virus 2
compound,measurement,setting,value
Cc1cc(O)c(=O)c(O)cc1C(=O)c1ccc(-c2ccccc2)cc1 [Compound 118],EC50,HBV,6 µM
same,"inhibition of the TK-mutant strain, in words",[1],efficiently inhibited
same,"inhibition of wild-type HSV-2, in words","HSV-2; 5 μM, laboratory strain, 24 hr, FIG. 4",efficiently inhibited
same,EC50,"HSV-2; Human alphaherpesvirus 2, Vero, 24 h, read-out: HSV-2 EC50",0.08 µM
same,log reduction at 5 µM,"HSV-2; Human alphaherpesvirus 2, Vero, 24 h, read-out: HSV-2 Log suppression 5 μM",3.22
same,log reduction at 50 µM,"HSV-2; Human alphaherpesvirus 2, Vero, 24 h, read-out: HSV-2 Log suppression 50 μM",5.56
